Experimental findings from patent US20240254119A1 (THIRD HARMONIC BIO, INC., priority 2022, published 2024) are described below.

Data set [1] has as its target T1, wtKIT (Homo sapiens, UniProt P10721).
T1 construct: 1888289AM in the reaction mixtures
The data set can be described thus: Caliper biochemical assay, wtKIT. The following applies: Table 6, read-out: KIT Biochemical IC50 avg. In outline: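 Mobility-shift read-out: after EDTA stop, fluorescent peptide substrate and product resolved electrophoretically on LabChip 3000. Reaction ran 3 h at 25° C with 400 μM ATP, Mn^2+ cofactor, 5.0 nM wtKIT, 1 μM FAM-peptide, pH 7.5 HEPES buffer; no-enzyme wells defined full inhibition.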

In data set [2] the target is T2, PDGFRα (Homo sapiens, UniProt P16234).
T2 construct: purchased Millipore 14-467 (lot 26321_ACTI)
The data set can be described thus: Caliper biochemical assay, PDGFRα. The following applies: Table 6. The method, then:
(§1) Enzyme, substrate, and cofactors (ATP and Mn^2+) are combined in a well of a microtiter plate and incubated for 3 hours at 25° C. At the end of the incubation, the reaction is quenched by the addition of an EDTA-containing buffer. Substrate and product are separated electrophoretically using the microfluidic-based LabChip 3000 Drug Discovery System from Caliper Life Sciences* and quantitated by fluorescence intensity.
(§2) The substrate used in the CSF-1R and PDGFRα assay is FAM-[…]-CONH2 (FAM is carboxyfluorescein). Peptide should be >95% purity. The substrate for the KIT assay is FAM-[…]-NH2.
(§3) • 1. To a well of a 384-well plate add 5 μL of 2× enzyme buffer (or control) • 2. Add 100 nL of 100× compound. • 3. Add 5 μL of 2× substrate buffer. • 4. Incubate plate at 25° C. for 3 hours. • 5. Add 10 uL of […]. • 6. Read plate LabChip 3000 Drug Discovery System
(§4) • 3 hours at 25° C. where 100% Inhibitor: No enzyme.

Data set [3] concerns the target T3, CSF-1R (Homo sapiens, UniProt P07333).
T3 construct: purchased Invitrogen PV3249 (lot 662393N)
The data set is described as follows: Caliper biochemical assay, CSF-1R. The following applies: Table 6. The method, then: as §1, §2, §3, §4

Data set [4] can be described thus: Kinetic solubility assay. The following applies: kinetic solubility, 50 mM PB (pH 7.4), shaken 24 hours at RT. Format: physicochemical. In outline:
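Concentration in the filtrate was determined by UPLC-UV or HPLC-UV with a standard curve. Before that, compound (10 mM DMSO stock) in 50 mM PB at pH 7.4 was agitated 24 h at room temperature, then PTFE-filtered with centrifugation.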

T3 sequence (P07333 20-972): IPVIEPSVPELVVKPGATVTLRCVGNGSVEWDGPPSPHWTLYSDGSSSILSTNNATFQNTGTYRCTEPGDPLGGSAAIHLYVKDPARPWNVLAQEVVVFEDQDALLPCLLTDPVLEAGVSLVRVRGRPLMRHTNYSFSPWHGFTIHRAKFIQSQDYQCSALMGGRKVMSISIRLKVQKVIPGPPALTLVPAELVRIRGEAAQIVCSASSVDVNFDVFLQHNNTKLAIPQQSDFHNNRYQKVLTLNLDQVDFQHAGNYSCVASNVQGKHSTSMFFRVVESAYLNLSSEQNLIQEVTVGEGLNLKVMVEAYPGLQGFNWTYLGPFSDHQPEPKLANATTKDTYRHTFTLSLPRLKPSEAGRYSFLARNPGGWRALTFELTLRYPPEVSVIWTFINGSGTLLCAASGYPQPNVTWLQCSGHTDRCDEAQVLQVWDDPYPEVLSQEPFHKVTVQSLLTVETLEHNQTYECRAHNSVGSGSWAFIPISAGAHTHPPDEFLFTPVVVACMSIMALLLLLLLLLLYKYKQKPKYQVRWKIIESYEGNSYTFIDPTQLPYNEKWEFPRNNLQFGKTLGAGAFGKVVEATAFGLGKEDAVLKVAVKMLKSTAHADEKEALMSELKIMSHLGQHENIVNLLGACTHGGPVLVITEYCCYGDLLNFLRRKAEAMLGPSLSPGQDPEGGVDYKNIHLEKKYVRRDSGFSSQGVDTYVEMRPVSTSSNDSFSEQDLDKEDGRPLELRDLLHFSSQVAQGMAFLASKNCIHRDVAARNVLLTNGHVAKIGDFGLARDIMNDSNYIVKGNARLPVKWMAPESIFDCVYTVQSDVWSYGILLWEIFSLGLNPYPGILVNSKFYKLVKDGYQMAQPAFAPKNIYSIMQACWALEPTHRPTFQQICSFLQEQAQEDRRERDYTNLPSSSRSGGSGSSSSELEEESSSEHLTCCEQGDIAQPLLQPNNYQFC
T1 sequence (P10721 26-976): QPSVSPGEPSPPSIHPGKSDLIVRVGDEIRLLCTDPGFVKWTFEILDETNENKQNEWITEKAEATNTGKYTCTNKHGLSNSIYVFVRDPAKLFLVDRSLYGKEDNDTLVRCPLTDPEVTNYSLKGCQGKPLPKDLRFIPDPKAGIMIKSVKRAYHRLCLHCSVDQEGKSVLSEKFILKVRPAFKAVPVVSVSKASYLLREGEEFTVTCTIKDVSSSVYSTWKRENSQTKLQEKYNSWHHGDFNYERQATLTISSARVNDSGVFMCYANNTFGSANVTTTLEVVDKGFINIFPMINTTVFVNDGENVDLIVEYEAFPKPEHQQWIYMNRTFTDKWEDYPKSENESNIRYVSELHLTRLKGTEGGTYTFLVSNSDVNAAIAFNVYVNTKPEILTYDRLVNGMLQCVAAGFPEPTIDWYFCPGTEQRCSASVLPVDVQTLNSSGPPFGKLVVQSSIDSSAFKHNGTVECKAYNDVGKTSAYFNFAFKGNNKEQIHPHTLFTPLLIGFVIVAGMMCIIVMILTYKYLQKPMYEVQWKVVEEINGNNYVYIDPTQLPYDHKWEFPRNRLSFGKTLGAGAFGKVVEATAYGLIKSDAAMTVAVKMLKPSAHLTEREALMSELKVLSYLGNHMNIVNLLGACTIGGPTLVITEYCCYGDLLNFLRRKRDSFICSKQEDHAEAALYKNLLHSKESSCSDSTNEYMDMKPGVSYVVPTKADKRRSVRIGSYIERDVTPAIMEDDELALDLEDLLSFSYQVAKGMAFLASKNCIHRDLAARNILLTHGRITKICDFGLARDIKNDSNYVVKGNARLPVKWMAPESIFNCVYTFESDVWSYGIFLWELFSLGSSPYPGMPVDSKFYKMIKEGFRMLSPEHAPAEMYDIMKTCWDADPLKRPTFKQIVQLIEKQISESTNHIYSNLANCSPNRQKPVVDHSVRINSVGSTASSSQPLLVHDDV
T2 sequence (P16234 24-1089): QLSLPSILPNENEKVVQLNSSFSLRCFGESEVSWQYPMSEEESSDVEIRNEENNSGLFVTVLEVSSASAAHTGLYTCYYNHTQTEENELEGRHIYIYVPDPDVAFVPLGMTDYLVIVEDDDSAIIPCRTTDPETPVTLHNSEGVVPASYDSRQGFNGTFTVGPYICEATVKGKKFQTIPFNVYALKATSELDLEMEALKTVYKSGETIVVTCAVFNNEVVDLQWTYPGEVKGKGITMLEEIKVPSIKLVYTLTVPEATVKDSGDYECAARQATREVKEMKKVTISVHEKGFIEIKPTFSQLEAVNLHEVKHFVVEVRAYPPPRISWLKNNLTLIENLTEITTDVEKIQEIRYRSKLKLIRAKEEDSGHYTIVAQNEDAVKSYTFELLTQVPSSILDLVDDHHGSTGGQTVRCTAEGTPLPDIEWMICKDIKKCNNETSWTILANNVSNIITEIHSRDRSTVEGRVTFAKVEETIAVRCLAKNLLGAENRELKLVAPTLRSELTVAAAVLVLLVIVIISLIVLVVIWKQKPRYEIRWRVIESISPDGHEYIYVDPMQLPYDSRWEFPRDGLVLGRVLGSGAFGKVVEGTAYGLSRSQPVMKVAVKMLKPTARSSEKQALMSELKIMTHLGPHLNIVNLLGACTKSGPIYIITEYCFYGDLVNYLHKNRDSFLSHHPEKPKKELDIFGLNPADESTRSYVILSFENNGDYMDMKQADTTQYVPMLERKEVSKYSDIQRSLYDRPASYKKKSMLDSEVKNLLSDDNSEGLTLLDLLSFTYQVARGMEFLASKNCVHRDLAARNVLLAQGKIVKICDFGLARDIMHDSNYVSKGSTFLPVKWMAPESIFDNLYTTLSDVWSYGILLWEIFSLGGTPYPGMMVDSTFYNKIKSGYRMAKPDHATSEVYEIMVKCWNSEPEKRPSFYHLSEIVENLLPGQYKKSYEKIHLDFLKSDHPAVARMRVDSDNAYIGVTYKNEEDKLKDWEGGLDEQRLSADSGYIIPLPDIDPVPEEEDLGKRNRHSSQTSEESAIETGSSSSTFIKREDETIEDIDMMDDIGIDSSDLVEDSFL

As to `Cc1ccc(-c2noc([C@@H]3CCN3S(=O)(=O)c3ccccc3)n2)cc1NC(=O)c1cnc2ccccn12` [Compound I-186], the IC50 was in the range of 50 to 500 nM in data set [1], 500 to 5000 nM in data set [2] and 50 to 500 nM in data set [3]. Further, the “Solubility (μM)” value in data set [4] was “*** (a solubility greater than 2 μM and less than or equal to 10 μM)”.
Turning to `Cc1ccc(-c2noc([C@H]3C[C@@H]3F)n2)cc1NC(=O)c1cnc2cc(N3CCCCC3)ccn12` [Compound I-305], the figures for the IC50 in data set [1], in data set [2] and in data set [3] were at most 50 nM, 50 to 500 nM and at most 50 nM, respectively. In data set [4], the “Solubility (μM)” value is on record as “**** (a solubility less than or equal to 2 μM)”.
For `Cc1ccc(-c2noc([C@H]3CCN3C3CCC3)n2)cc1NC(=O)c1cnc2ccccn12` [Compound I-193], the IC50 in data set [1] is at most 50 nM; in data set [2], 50 to 500 nM; in data set [3] it was at most 50 nM. The “Solubility (μM)” value in data set [4] is given as “**** (a solubility less than or equal to 2 μM)”.
Consider `Cc1ccc(-c2noc(C3CCN3CCOC(F)(F)F)n2)cc1NC(=O)c1cnc2ccccn12` (racemic) [Compound I-168], for which the results for the IC50 in data set [1], in data set [2] and in data set [3] were at most 50 nM, 500 to 5000 nM and 50 to 500 nM, respectively. Further, in data set [4], the “Solubility (μM)” value is “** (a solubility greater than 10 μM and less than or equal to 50 μM)”.
For `Cc1ccc(-c2noc(C3CCN3S(C)(=O)=O)n2)cc1NC(=O)c1cnc2ccccn12` (stereo not drawn) [Compound I-331], the IC50 was at most 50 nM in data set [1], 50 to 500 nM in data set [2] and at most 50 nM in data set [3]. The “Solubility (μM)” value in data set [4] was “** (a solubility greater than 10 μM and less than or equal to 50 μM)”.
For `Cc1ccc(-c2noc([C@H]3C[C@@H]3F)n2)cc1NC(=O)c1cnc2cc(Nc3ccc4c(c3)OCCO4)ccn12` [Compound I-301], the IC50 in data set [1], in data set [2] and in data set [3] was at most 50 nM throughout. In addition, the “Solubility (μM)” value in data set [4] is recorded as “**** (a solubility less than or equal to 2 μM)”.
In the case of `Cc1nc(-c2ccc(C)c(NC(=O)c3cnc4ccc(NCCO)cn34)c2)no1` [Compound I-176], the IC50 in data set [1] was at most 50 nM; in data set [2] it was 50 to 500 nM; in data set [3] it was at most 50 nM. In addition, the “Solubility (μM)” value in data set [4] is “** (a solubility greater than 10 μM and less than or equal to 50 μM)”.
As for `Cc1ccc(-c2noc([C@H]3CCN3C(C)C)n2)cc1NC(=O)c1cnc2ccccn12` [Compound I-194], the IC50 in data set [1] was at most 50 nM; in data set [2], 50 to 500 nM; in data set [3], at most 50 nM. The “Solubility (μM)” value in data set [4] is “*** (a solubility greater than 2 μM and less than or equal to 10 μM)”.
As to `Cc1nc(-c2ccc(C)c(NC(=O)c3cnc4cc(COCC(F)(F)F)ccn34)c2)no1` [Compound I-133], the values for the IC50 in data set [1], in data set [2] and in data set [3] were at most 50 nM, 5000 to 30000 nM and 500 to 5000 nM, respectively. Besides, the “Solubility (μM)” value in data set [4] is “**** (a solubility less than or equal to 2 μM)”.
The matching figures for `Cc1ccc(-c2noc([C@@H]3CCN3C3CC3)n2)cc1NC(=O)c1cnc2ccccn12` (racemic) [Compound I-177]: at most 50 nM, 50 to 500 nM, 50 to 500 nM and “**** (a solubility less than or equal to 2 μM)”.
`Cc1ccc(-c2noc([C@@H]3CCN3S(=O)(=O)C3CCOCC3)n2)cc1NC(=O)c1cnc2ccccn12` [Compound I-187]: the IC50 in data set [1], in data set [2] and in data set [3] was 50 to 500 nM in each case. For the same compound, the “Solubility (μM)” value in data set [4] was “** (a solubility greater than 10 μM and less than or equal to 50 μM)”.
Take `Cc1ccc(-c2noc(C3CCN3S(C)(=O)=O)n2)cc1NC(=O)c1cnc2ccccn12` (racemic) [Compound I-356]: the IC50 is at most 50 nM in data set [1], 500 to 5000 nM in data set [2] and 50 to 500 nM in data set [3]. Further, the “Solubility (μM)” value in data set [4] is “** (a solubility greater than 10 μM and less than or equal to 50 μM)”.
For `COC(=O)N1CC(c2nc(-c3ccc(C)c(NC(=O)c4cnc5cc(C(F)F)ccn45)c3)no2)C1` [Compound I-135], the figures for the IC50 in data set [1], in data set [2] and in data set [3] were at most 50 nM, 5000 to 30000 nM and 50 to 500 nM, respectively. In data set [4], the “Solubility (μM)” value is “**** (a solubility less than or equal to 2 μM)”.
The matching figures for `Cc1ccc(-c2noc([C@@H]3CCN3CC(F)(F)F)n2)cc1NC(=O)c1cnc2ccccn12` (racemic) [Compound I-178]: at most 50 nM, 50 to 500 nM, at most 50 nM and “**** (a solubility less than or equal to 2 μM)”.
The matching figures for `Cc1ccc(-c2noc(CC(O)C(F)(F)F)n2)cc1NC(=O)c1cnc2ccccn12` (racemic) [Compound I-183]: 50 to 500 nM, 5000 to 30000 nM, 50 to 500 nM and “**** (a solubility less than or equal to 2 μM)”.
With `Cc1ccc(-c2noc([C@H]3CCN3S(=O)(=O)C3CCOCC3)n2)cc1NC(=O)c1cnc2ccccn12` [Compound I-196], the values for the IC50 in data set [1], in data set [2] and in data set [3] were at most 50 nM, 50 to 500 nM and at most 50 nM, respectively. Further, the “Solubility (μM)” value in data set [4] is “** (a solubility greater than 10 μM and less than or equal to 50 μM)”.
Turning to `Cc1ccc(-c2noc(C3CCCCN3S(C)(=O)=O)n2)cc1NC(=O)c1cnc2ccccn12` (racemic) [Compound I-174], the 50% inhibitory concentration (IC50) in data set [1] was 50 to 500 nM; in data set [2], 50 to 500 nM; in data set [3], at most 50 nM. Further, the “Solubility (μM)” value in data set [4] is “*** (a solubility greater than 2 μM and less than or equal to 10 μM)”.
Regarding `Cc1ccc(-c2noc([C@H](C)NS(=O)(=O)c3cnn(C)c3)n2)cc1NC(=O)c1cnc2ccccn12` (racemic) [Compound I-181], the IC50 in data set [1] is at most 50 nM; in data set [2], 500 to 5000 nM; in data set [3], at most 50 nM. Also, the “Solubility (μM)” value in data set [4] is “* (a solubility greater than 50 μM)”.
`Cc1ccc(-c2noc([C@@H]3CCC(F)(F)CN3)n2)cc1NC(=O)c1cnc2ccccn12` (racemic) [Compound I-198]: the IC50 in data set [1] is at most 50 nM; in data set [2] it was 500 to 5000 nM; in data set [3], 50 to 500 nM. Moreover, the “Solubility (μM)” value in data set [4] is “*** (a solubility greater than 2 μM and less than or equal to 10 μM)”.
Turning to `Cc1ccc(-c2noc([C@H]3C[C@@H]3F)n2)cc1NC(=O)c1cnc2ccc(N3CCC3)cn12` [Compound I-291], the IC50 in data set [1] was at most 50 nM; in data set [2], 50 to 500 nM; in data set [3] it was at most 50 nM. For the same compound, in data set [4], the “Solubility (μM)” value is “*** (a solubility greater than 2 μM and less than or equal to 10 μM)”.
As for `COC(=O)N1CC(c2nc(-c3ccc(C)c(NC(=O)c4cnc5cc(COCC(F)(F)F)ccn45)c3)no2)C1` [Compound I-128], the IC50 in data set [1] is at most 50 nM; in data set [2] it was 5000 to 30000 nM; in data set [3], 50 to 500 nM. Further, the “Solubility (μM)” value in data set [4] is “**** (a solubility less than or equal to 2 μM)”.
Take `Cc1ccc(-c2noc(C34CCC(CC3)CC4)n2)cc1NC(=O)c1cnc2ccccn12` [Compound I-311]: the IC50 in data set [1] was 50 to 500 nM; in data set [2], at most 50 nM; in data set [3] it was at most 50 nM. Further, the “Solubility (μM)” value in data set [4] is recorded as “**** (a solubility less than or equal to 2 μM)”.
As to `COC(=O)CS(=O)(=O)N1CC[C@H]1c1nc(-c2ccc(C)c(NC(=O)c3cnc4ccccn34)c2)no1` [Compound I-188], the IC50 in data set [1] is at most 50 nM; in data set [2], 50 to 500 nM; in data set [3] it was 50 to 500 nM. For the same compound, in data set [4], the “Solubility (μM)” value is “*** (a solubility greater than 2 μM and less than or equal to 10 μM)”.
Regarding `Cc1ccc(-c2noc([C@H](C)NS(C)(=O)=O)n2)cc1NC(=O)c1cnc2ccccn12` [Compound I-147], the IC50 was at most 50 nM in data set [1], 5000 to 30000 nM in data set [2] and 50 to 500 nM in data set [3]. Also, the “Solubility (μM)” value in data set [4] is “** (a solubility greater than 10 μM and less than or equal to 50 μM)”.
In the case of `COC(=O)CS(=O)(=O)N1CCC1c1nc(-c2ccc(C)c(NC(=O)c3cnc4ccccn34)c2)no1` (stereo not drawn) [Compound I-197], the IC50 in data set [1] was at most 50 nM; in data set [2], 500 to 5000 nM; in data set [3], 50 to 500 nM. In data set [4], the “Solubility (μM)” value is “*** (a solubility greater than 2 μM and less than or equal to 10 μM)”.
On to `CCN1CC[C@H]1c1nc(-c2ccc(C)c(NC(=O)c3cnc4ccccn34)c2)no1` (racemic) [Compound I-180], for which the IC50 in data set [1] was at most 50 nM; in data set [2], 500 to 5000 nM; in data set [3], 50 to 500 nM. Moreover, in data set [4], the “Solubility (μM)” value is recorded as “* (a solubility greater than 50 μM)”.
The matching figures for `COCCN1CC[C@H]1c1nc(-c2ccc(C)c(NC(=O)c3cnc4ccccn34)c2)no1` (racemic) [Compound I-179]: 50 to 500 nM, 5000 to 30000 nM, 500 to 5000 nM and “* (a solubility greater than 50 μM)”.
